Measurements: the NIST ThermoML archive (doi:10.1016/j.tca.2015.01.022)
± gives the expanded uncertainty stated by the source.

Assay: molar heat capacity at constant pressure
Settings: 101.33 kPa, Glass, Small (less than 1 g) adiabatic calorimetry

CCOS(=O)(=O)[O-].CCn1cc[n+](C)c1 [1-ethyl-3-methylimidazolium ethyl sulfate]
Settings | molar heat capacity at constant pressure [J/K/mol]
5 K | 1.02 ± 0.04
7.21 K | 2.892 ± 0.072
7.52 K | 3.232 ± 0.078
7.89 K | 3.662 ± 0.086
8.26 K | 4.116 ± 0.093
8.64 K | 4.61 ± 0.1
9.02 K | 5.113 ± 0.11
9.4 K | 5.662 ± 0.12
9.78 K | 6.226 ± 0.13
10 K | 6.55 ± 0.14
10.17 K | 6.81 ± 0.14
10.66 K | 7.609 ± 0.15
11.26 K | 8.587 ± 0.16
11.87 K | 9.634 ± 0.17
12.47 K | 10.71 ± 0.18
13.09 K | 11.85 ± 0.19
13.7 K | 13.01 ± 0.2
14.32 K | 14.24 ± 0.21
14.95 K | 15.52 ± 0.22
15 K | 15.63 ± 0.23
15.69 K | 17.06 ± 0.23
16.54 K | 18.87 ± 0.24
17.39 K | 20.71 ± 0.25
18.24 K | 22.56 ± 0.25
19.1 K | 24.43 ± 0.26
19.96 K | 26.32 ± 0.26
20 K | 26.45 ± 0.27
21.16 K | 29.04 ± 0.28
22.71 K | 32.61 ± 0.3
24.26 K | 36.22 ± 0.31
25 K | 37.93 ± 0.32
25.81 K | 39.86 ± 0.33
27.37 K | 43.43 ± 0.34
28.95 K | 47.02 ± 0.35
30 K | 49.4 ± 0.32
30.54 K | 50.61 ± 0.32
32.28 K | 54.42 ± 0.34
33.12 K | 56.24 ± 0.35
35 K | 60.18 ± 0.37
35.01 K | 60.28 ± 0.37
36.91 K | 64.15 ± 0.39
38.82 K | 68 ± 0.41
40 K | 70.37 ± 0.43
40.72 K | 71.74 ± 0.43
42.73 K | 75.61 ± 0.45
44.84 K | 79.65 ± 0.48
45 K | 79.98 ± 0.48
46.95 K | 83.58 ± 0.5
49.06 K | 87.43 ± 0.52
50 K | 89 ± 0.53
51.17 K | 91.07 ± 0.54
53.29 K | 94.63 ± 0.55
55.41 K | 98.01 ± 0.57
57.53 K | 101.3 ± 0.6
59.66 K | 104.5 ± 0.6
60 K | 105.1 ± 0.6
61.79 K | 107.7 ± 0.6
63.92 K | 110.7 ± 0.6
66.06 K | 113.7 ± 0.7
68.21 K | 116.6 ± 0.7
70 K | 119 ± 0.7
70.35 K | 119.5 ± 0.7
72.59 K | 122.4 ± 0.7
74.94 K | 125.3 ± 0.7
77.3 K | 128.3 ± 0.7
79.66 K | 131.2 ± 0.8
80 K | 131.5 ± 0.7
80.4 K | 132.1 ± 0.8
82.02 K | 133.9 ± 0.8
82.22 K | 134.2 ± 0.8
84.05 K | 136.2 ± 0.8
84.39 K | 136.7 ± 0.8
85.88 K | 138.3 ± 0.8
87.71 K | 140.4 ± 0.8
89.54 K | 142.4 ± 0.8
90 K | 143 ± 0.8
91.38 K | 144.4 ± 0.8
93.22 K | 146.5 ± 0.8
95.06 K | 148.5 ± 0.8
96.91 K | 150.4 ± 0.8
98.76 K | 152.4 ± 0.8
100 K | 153.7 ± 0.8
100.61 K | 154.3 ± 0.8
102.46 K | 156.2 ± 0.9
104.31 K | 158 ± 0.9
106.16 K | 159.9 ± 0.9
108.05 K | 161.9 ± 0.9
109.91 K | 163.7 ± 0.9
110 K | 163.7 ± 0.9
111.77 K | 165.5 ± 0.9
113.63 K | 167.3 ± 0.9
115.49 K | 169.2 ± 0.9
117.36 K | 171 ± 0.9
119.23 K | 172.8 ± 0.9
120 K | 173.5 ± 0.9
121.1 K | 174.6 ± 0.9
122.98 K | 176.4 ± 1
124.42 K | 177.8 ± 1
124.85 K | 178.2 ± 1
126.41 K | 179.7 ± 1
126.73 K | 180 ± 1
128.28 K | 181.4 ± 1
128.61 K | 181.8 ± 1
130 K | 183.1 ± 1
130.16 K | 183.3 ± 1
130.5 K | 183.6 ± 1
132.03 K | 185.1 ± 1
132.38 K | 185.4 ± 1
133.91 K | 186.9 ± 1
134.27 K | 187.2 ± 1
135.79 K | 188.7 ± 1
136.16 K | 189.1 ± 1
137.67 K | 190.6 ± 1
138.05 K | 190.9 ± 1
139.55 K | 192.4 ± 1
139.95 K | 192.7 ± 1
140 K | 192.8 ± 1.1
141.43 K | 194.2 ± 1
141.84 K | 194.5 ± 1
143.31 K | 196 ± 1
143.74 K | 196.4 ± 1.1
145.19 K | 197.9 ± 1.1
145.64 K | 198.2 ± 1.1
147.07 K | 199.7 ± 1.1
147.53 K | 200.1 ± 1.1
148.95 K | 201.6 ± 1.1
149.43 K | 202 ± 1.1
150 K | 202.6 ± 1.1
150.83 K | 203.5 ± 1.1
151.33 K | 203.9 ± 1.1
152.71 K | 205.3 ± 1.1
153.23 K | 205.8 ± 1.1
154.59 K | 207.2 ± 1.1
155.13 K | 207.8 ± 1.1
155.16 K | 207.7 ± 1.1
156.47 K | 209.1 ± 1.1
157.04 K | 209.7 ± 1.1
157.27 K | 209.9 ± 1.1
158.34 K | 211.1 ± 1.1
158.94 K | 211.7 ± 1.1
159.27 K | 212 ± 1.1
160 K | 212.7 ± 1.2
160.22 K | 213.1 ± 1.1
160.84 K | 213.8 ± 1.1
161.27 K | 214.3 ± 1.1
162.09 K | 215 ± 1.1
162.75 K | 215.8 ± 1.1
163.26 K | 216.4 ± 1.1
163.96 K | 217.2 ± 1.2
164.67 K | 217.8 ± 1.2
165.26 K | 218.6 ± 1.2
165.83 K | 219.3 ± 1.2
166.58 K | 220.1 ± 1.2
167.25 K | 221 ± 1.2
167.7 K | 221.5 ± 1.2
168.51 K | 222.3 ± 1.2
169.24 K | 223.4 ± 1.2
169.57 K | 223.8 ± 1.2
170 K | 224.3 ± 1.2
170.43 K | 224.8 ± 1.2
171.36 K | 226.2 ± 1.2
171.44 K | 226.5 ± 1.2
172.36 K | 227.7 ± 1.2
173.31 K | 229.1 ± 1.2
173.44 K | 229.3 ± 1.2
174.29 K | 230.5 ± 1.2
175.18 K | 232 ± 1.2
175.43 K | 232.4 ± 1.2
176.22 K | 233.7 ± 1.2
177.04 K | 235.4 ± 1.2
177.41 K | 236.3 ± 1.2
178.16 K | 237.7 ± 1.3
178.9 K | 239.4 ± 1.3
179.39 K | 240.8 ± 1.3
180 K | 242.6 ± 1.3
180.1 K | 242.9 ± 1.3
